# Test results: patent US7906518B2, “Therapeutic compounds” (CBT Development Limited, priority 2006, dated 2011)
# Experiments:
# adenosine A2A receptor = adenosine A2A receptor (Homo sapiens, UniProt P29274); assay: EC50 at the adenosine A2A receptor; format: biochemical
# [1] = system: streptozocin induced static allodynia; assay: streptozocin-induced diabetic neuropathy, static allodynia (von Frey hairs); format: in vivo; settings: rats
# Experimental: Diabetes was induced by a single i.p. injection of 50 mg/kg streptozocin (Sigma, 50 mg/ml/kg in citrate buffered saline 33 mM pH 4.5). Control animals received single i.p. injection of citrate buffered saline.
# [2] = monkey, multiple oral dosing, 14C-labelled; cited from earlier work
# Chain of adenosine A2A receptor (P29274 whole entry): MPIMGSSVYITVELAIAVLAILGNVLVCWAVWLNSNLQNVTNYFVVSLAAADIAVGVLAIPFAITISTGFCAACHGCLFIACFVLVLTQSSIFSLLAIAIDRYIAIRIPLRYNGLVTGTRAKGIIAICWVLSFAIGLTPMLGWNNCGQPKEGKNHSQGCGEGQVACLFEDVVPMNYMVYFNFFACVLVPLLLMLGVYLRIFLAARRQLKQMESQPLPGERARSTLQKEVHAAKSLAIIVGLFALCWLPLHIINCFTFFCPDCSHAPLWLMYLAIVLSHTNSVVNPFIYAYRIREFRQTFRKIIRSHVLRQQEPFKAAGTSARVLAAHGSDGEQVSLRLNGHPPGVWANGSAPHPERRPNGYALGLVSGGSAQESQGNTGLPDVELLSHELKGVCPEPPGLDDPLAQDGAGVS
EC50 (adenosine A2A receptor) [nM],Compound,"reversal of streptozocin induced static allodynia (PWT), all doses ([1]; 0.6-[…] po)","reversal of streptozocin induced static allodynia (PWT), top dose ([1]; top dose […] po)",drug level in red blood cells compared to Ribavarin [2],drug level in the liver compared to Ribavarin [2]
~1000,"COc1nc(N)c2ncn([C@@H]3O[C@H](CO)[C@@H](O)[C@H]3O)c2n1 [Spongosine, 2-methoxyadenosine]",All doses were effective at reversing allodynia,fully reversed the allodynia,,
,N=C(N)c1ncn([C@@H]2O[C@H](CO)[C@@H](O)[C@H]2O)n1 [Viramidine],,,only half in red blood cells,three times the drug level in the liver
